# Results published in patent US10993935B2, “Compositions and methods for treatment of lung infections” (priority 2018, dated 2021).
# Tests used:
# [1] = Solubility of RFX in nebulization solvents; type: physicochemical
# Method: As treatment for traveler's diarrhea, RFX is a drug optimized for oral use. For RFX to be useful as a treatment for CF patients, it was determined whether RFX could be delivered to the lungs through nebulization. Nebulizing RFX was initially unsuccessful and more difficult than presumed. […] RFX was not soluble in water-based solutions, but was soluble in dimethyl-sulfoxide (DMSO) and ETOH (ethanol) in small volumes. […] However, 100% DMSO could be used to retain RFX in solution and deliver to the lungs as noted by HPLC data.
# [2] = Adverse effects after nebulization in mice; type: in vivo, C57BL/6 mice; conditions: mouse, in vivo
# Method: Drug Nebulization. C57BL/6 mice (n=8) were first exposed to 5 mL DMSO for 10 minutes to determine any adverse effects that may occur from using DMSO. Mice (n=16) were then exposed to TOB in 0.225% saline or RFX in DMSO via nebulization until the 5 mL drug mixture was depleted—typically 10-15 minutes. Nebulization was conducted using the pressure-based nebulizer and chamber purchased from Kent Scientific (Torrington, Conn.). TOB was nebulized at concentrations of 100 mg (n=4) or 400 mg (n=4) in 5 mL of 0.225% saline. RFX was nebulized at concentrations of 100 mg (n=4) or 400 mg (n=4) in 5 ml of 100% dimethyl sulfoxide. Mice were sacrificed immediately after nebulization via CO2 chamber. Lungs were then collected and homogenized. TOB concentrations were measured using ELISA. RFX concentrations were measured via HPLC.
# The potential adverse effects of using DMSO were first assessed by nebulizing DMSO alone to a group of C57BL/6 mice (n=8). This type of mice was used due to their natural resistance against infection based on our previous studies. […] To determine the dosage of each drug received by the mice, the lungs were homogenized and drug concentrations of TOB and RFX were determined via ELISA and HPLC, respectively. […] The droplet size for both TOB and RFX were determined to be identical with the average droplet size for TOB and RFX being 5.07 μm and 5.02 μm, respectively. […]
structure (smiles),measurement,setting,value
"CO[C@H]1/C=C/O[C@@]2(C)Oc3c(C)c(O)c4c(O)c(c5c(nc6cc(C)ccn65)c4c3C2=O)NC(=O)/C(C)=C\C=C\[C@H](C)[C@H](O)[C@@H](C)[C@@H](O)[C@@H](C)[C@H](OC(C)=O)[C@@H]1C [RFX, rifaximin]",solubility,"[1]; in 20%, 40%, and 80% DMSO in PBS, came out of solution on nebulization",partially or fully dissolve
same,solubility,[1]; in DMSO,readily soluble
same,solubility,[1]; in PBS or saline,did not dissolve
same,solubility,[1]; in dimethyl-sulfoxide (DMSO) and ETOH (ethanol) in small volumes,soluble
same,solubility,[1]; in water,only sparingly soluble
same,solubility,[1]; in water-based solutions,not soluble
same,adverse effects,[2],no adverse effects
